Legend:
[1] = tested on: Lewis Ratten; test: Rat tail skin transplantation, DA donor to Lewis recipient: graft survival time; assay type: in vivo; settings: d0-9, mean ± s of 5 animals, * p 0.001
Source text: (§1) In einem Experimentalansatz wurden Schwanzhautstückchen von Lewis Ratten mit einer Größe von etwa 0.5 x 1.0 cm auf den Schwanz von Fischer Ratten verpflanzt. In einem weiteren Modell wurde die Schwanzhaut von DA Ratten auf Lewis Ratten transplantiert. Die transplantierten Hautstücke werden vom Immunsystem der Empfängertiere als fremd erkannt und abgestoßen. Wie in Tabelle I zu sehen ist, betrug die Transplantüberlebenszeit im Lewis-Fischer-Rattenmodell in den Kontrollgruppen, die nur mit dem Lösungsmittel behandelt wurden zwischen 16 und 18 Tagen. Die Verbindung der Formel I mit R₁ = H wurde in verschiedenen Konzentrationen (1, 5, 10, 20 und 40 mg/kg Körpergewicht pro Injektion) an 10 aufeinanderfolgenden Tagen, beginnend mit dem Tag der Transplantation, entweder oral oder intraperitoneal verabreicht. Hierbei zeigt sich, daß sich durch verschiedene Konzentrationen der Substanz die Überlebenszeiten der Transplantate dosisabhängig von 15.8 ± 2.4 auf 26.8 ± 1.3 bzw. 18.4 ± 1.5 auf 28.4 ± 1.1 erhöhen ließen, wobei 10 mg/kg eine optimal wirksame Dosis zu sein scheinen.
Auch im anderen Transplantationsmodell mit DA Ratten (Spender) und Lewis Ratten (Empfänger) kommt es zu einer Verlängerung der Transplantatüberlebenszeiten durch die Gabe von Homopiperazinen. Hier stoßen die nur mit dem Lösungsmittel behandelten Kontrolltiere das Transplantat ca. am Tag 12 ab. Durch die Behandlung (p.o. oder i.p. […]

[2] = tested on: Fischer-Ratten; test: Rat tail skin transplantation, Lewis donor to Fischer recipient: graft survival time; assay type: in vivo; settings: d0-9, mean ± s of 5 animals
Source text: as §1

SMILES: CC(C)(C)c1cc(C(=O)N2CCCNCC2)cc(C(C)(C)C)c1O [Verbindung der Formel I mit R¹ = H]
- Tage bis zur Abstoßung (x ± s) ([1]; 5 mg/kg, 5xip): (16.0 ± 1.2)* Tage
- Tage bis zur Abstoßung (x ± s) ([1]; 10 mg/kg, 5xip): (16.6 ± 1.8)* Tage
- Tage bis zur Abstoßung (x ± s) ([1]; 10 mg/kg, 10xpo): (16.6 ± 0.6)* Tage
- Tage bis zur Abstoßung (x ± s) ([1]; 25 mg/kg, 5xip): (17.8 ± 0.8)* Tage
- Tage bis zur Abstoßung (x ± s) ([1]; 25 mg/kg, 10xpo): (17.4 ± 0.6)* Tage
- Tage bis zur Abstoßung (x ± s) ([1]; 50 mg/kg, 5xip): (19.6 ± 1.8)* Tage
- Tage bis zur Abstoßung (x ± s) ([1]; 50 mg/kg, 10xpo): (18.6 ± 1.1)* Tage
- Tage bis zur Abstoßung (x ± s) ([2]; 1 mg/kg, 10xip): (22.8 ± 2.2) Tage
- Tage bis zur Abstoßung (x ± s) ([2]; 1 mg/kg, 10xpo): (21.6 ± 1.3) Tage
- Tage bis zur Abstoßung (x ± s) ([2]; 5 mg/kg, 10xip): (25.0 ± 2.6) Tage
- Tage bis zur Abstoßung (x ± s) ([2]; 5 mg/kg, 10xpo): (25.2 ± 0.8) Tage
- Tage bis zur Abstoßung (x ± s) ([2]; 10 mg/kg, 10xip): (26.8 ± 1.3) Tage
- Tage bis zur Abstoßung (x ± s) ([2]; 10 mg/kg, 10xip, listed as Verbindung der Formel I mit R₁ = H): 26.8 ± 1.3 Tage
- Tage bis zur Abstoßung (x ± s) ([2]; 10 mg/kg, 10xpo): (28.4 ± 1.1) Tage
- Tage bis zur Abstoßung (x ± s) ([2]; 10 mg/kg, 10xpo, listed as Verbindung der Formel I mit R₁ = H): 28.4 ± 1.1 Tage
- Tage bis zur Abstoßung (x ± s) ([2]; 20 mg/kg, 10xip): (25.2 ± 1.6) Tage
- Tage bis zur Abstoßung (x ± s) ([2]; 20 mg/kg, 10xpo): (26.8 ± 0.8) Tage
- Tage bis zur Abstoßung (x ± s) ([2]; 40 mg/kg, 10xip): (22.4 ± 2.4) Tage
- Tage bis zur Abstoßung (x ± s) ([2]; 40 mg/kg, 10xpo): (24.6 ± 2.0) Tage

Reference: EP0363836A2, “Use of homopiperazines in the preparation of a medicament for preventing or treating organ rejection reactions” (BEHRINGWERKE Aktiengesellschaft, priority 1988, dated 1990)
